In assay [1] the target is T1, Apoptotic protease-activating factor 1 (Homo sapiens, UniProt O14727).
T1 sequence (O14727 whole entry): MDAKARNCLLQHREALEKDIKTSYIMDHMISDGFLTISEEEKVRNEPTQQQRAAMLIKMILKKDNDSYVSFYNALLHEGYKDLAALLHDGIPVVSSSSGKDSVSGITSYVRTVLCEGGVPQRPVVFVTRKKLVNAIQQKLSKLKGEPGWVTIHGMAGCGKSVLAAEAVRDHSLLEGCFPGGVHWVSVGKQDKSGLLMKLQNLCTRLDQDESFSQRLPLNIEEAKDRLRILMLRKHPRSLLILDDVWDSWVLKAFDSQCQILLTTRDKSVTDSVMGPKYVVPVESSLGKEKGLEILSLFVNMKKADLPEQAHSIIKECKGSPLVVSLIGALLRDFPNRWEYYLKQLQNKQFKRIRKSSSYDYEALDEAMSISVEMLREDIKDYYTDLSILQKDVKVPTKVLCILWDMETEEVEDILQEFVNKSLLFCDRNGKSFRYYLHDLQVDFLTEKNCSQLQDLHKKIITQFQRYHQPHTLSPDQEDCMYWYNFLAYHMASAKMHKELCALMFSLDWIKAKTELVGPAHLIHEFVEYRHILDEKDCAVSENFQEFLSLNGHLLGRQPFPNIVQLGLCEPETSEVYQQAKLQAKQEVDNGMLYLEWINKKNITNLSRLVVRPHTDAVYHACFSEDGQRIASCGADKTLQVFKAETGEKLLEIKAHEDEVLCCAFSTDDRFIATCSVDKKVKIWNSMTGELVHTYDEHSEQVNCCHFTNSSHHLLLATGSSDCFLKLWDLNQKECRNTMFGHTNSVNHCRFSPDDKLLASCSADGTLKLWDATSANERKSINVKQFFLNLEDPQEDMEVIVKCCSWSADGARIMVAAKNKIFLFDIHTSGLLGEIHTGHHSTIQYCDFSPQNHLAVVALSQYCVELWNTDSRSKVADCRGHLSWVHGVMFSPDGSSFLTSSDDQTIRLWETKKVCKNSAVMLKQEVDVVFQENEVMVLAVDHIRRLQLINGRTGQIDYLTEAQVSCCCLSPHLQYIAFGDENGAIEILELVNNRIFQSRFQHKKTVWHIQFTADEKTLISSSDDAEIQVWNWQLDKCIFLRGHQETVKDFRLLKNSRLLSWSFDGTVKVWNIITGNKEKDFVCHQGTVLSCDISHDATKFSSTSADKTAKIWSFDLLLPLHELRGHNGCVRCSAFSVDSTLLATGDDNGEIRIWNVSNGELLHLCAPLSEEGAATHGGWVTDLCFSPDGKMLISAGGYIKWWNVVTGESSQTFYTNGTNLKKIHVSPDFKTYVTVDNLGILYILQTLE
Type of assay: functional.

In assay [2] the target is T2, Dual specificity protein phosphatase 6 (Rattus norvegicus, UniProt Q64346).
T2 sequence (Q64346 whole entry): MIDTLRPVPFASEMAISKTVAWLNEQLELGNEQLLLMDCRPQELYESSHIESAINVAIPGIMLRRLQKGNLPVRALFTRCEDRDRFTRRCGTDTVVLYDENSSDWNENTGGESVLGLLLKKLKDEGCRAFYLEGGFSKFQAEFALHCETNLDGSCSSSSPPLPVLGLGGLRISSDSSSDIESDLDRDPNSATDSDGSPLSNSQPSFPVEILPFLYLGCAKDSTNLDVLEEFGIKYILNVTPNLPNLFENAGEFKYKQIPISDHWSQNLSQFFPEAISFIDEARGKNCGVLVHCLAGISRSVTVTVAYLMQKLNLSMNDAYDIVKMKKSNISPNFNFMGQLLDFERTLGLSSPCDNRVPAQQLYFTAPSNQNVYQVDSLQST
Nature of the assay: inhibition of rat DUSP6 enzyme activity – biochemical, in vitro, primary screen (AID 425).

Assay [3] concerns the target Calcium/calmodulin-dependent protein kinase type II subunit delta (Homo sapiens, UniProt Q13557). Type of assay: functional.
Assay [4] has as its target Interleukin-1 receptor-associated kinase 4 (Homo sapiens, UniProt Q9NWZ3). Type of assay: functional.
In the next assay the target is Ephrin type-A receptor 2 (Homo sapiens, UniProt P29317). Type of assay: functional.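 Also: EPHA2 tested as one member of a kinome-wide kinase panel.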
The target in assay [5] is Serine/threonine-protein kinase PLK3 (Homo sapiens, UniProt Q9H4B4). Type of assay: functional.
Assay [6] concerns the target Proto-oncogene tyrosine-protein kinase Src (Homo sapiens, UniProt P12931). Type of assay: functional.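 Also: SRC entry within a kinome-wide kinase profiling panel.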
In assay [7] the target is Calcium/calmodulin-dependent protein kinase type II subunit gamma (Homo sapiens, UniProt Q13555). Type of assay: functional.
The target in assay [8] is Serine/threonine-protein kinase BRSK1 (Homo sapiens, UniProt Q8TDC3). Type of assay: functional.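 Also: measured within a kinome-wide kinase panel, with the target listed as KIAA1811.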
For assay [9], the target named is Protein kinase C iota type (Homo sapiens, UniProt P41743). Type of assay: functional.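 Also: measured within a kinome-wide kinase panel, PRKCI as panel member.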
For assay [10], the target named is Fibroblast growth factor receptor 3 (Homo sapiens, UniProt P22607). Type of assay: functional.
The target in assay [11] is Serine/threonine-protein kinase pim-2 (Homo sapiens, UniProt Q9P1W9). Type of assay: functional.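 Also: value comes from a broad kinase panel profiling study in which PIM2 was one of the panel members.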
Assay [12] deals with MAP kinase-activated protein kinase 3 (Homo sapiens, UniProt Q16644). The assay is classed as functional.
Assay [13] addresses Leukocyte tyrosine kinase receptor (Homo sapiens, UniProt P29376). Nature of the assay: Navigating the Kinome. Panel member name: LTK. The assay is classed as functional.
Assay [14] has as its target Rho-associated protein kinase 1 (Homo sapiens, UniProt Q13464). The assay is classed as functional.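 Also: measured within a broad kinome-wide panel profiling many kinases.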
For assay [15], the target named is Dual specificity mitogen-activated protein kinase kinase 1 (Homo sapiens, UniProt Q02750). Nature of the assay: Navigating the Kinome. Panel member name: MAP2K1. The assay is classed as functional.
The target of assay [16] is Proto-oncogene tyrosine-protein kinase receptor Ret (Homo sapiens, UniProt P07949). Type of assay: functional.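 Also: measured within a kinome-wide profiling panel, RET as the panel member.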
Assay [17] has as its target Calcium/calmodulin-dependent protein kinase type II subunit alpha (Homo sapiens, UniProt Q9UQM7). Nature of the assay: Navigating the Kinome. Panel member name: CAMK2A. The assay is classed as functional.
A further assay concerns the target Activated CDC42 kinase 1 (Homo sapiens, UniProt Q07912). Nature of the assay: Navigating the Kinome. Panel member name: ACK1. Type of assay: functional.

Active and inactive are the calls of the source. Bounds are passed on as bounds.

Sequence of Calcium/calmodulin-dependent protein kinase type II subunit gamma (Q13555 whole entry): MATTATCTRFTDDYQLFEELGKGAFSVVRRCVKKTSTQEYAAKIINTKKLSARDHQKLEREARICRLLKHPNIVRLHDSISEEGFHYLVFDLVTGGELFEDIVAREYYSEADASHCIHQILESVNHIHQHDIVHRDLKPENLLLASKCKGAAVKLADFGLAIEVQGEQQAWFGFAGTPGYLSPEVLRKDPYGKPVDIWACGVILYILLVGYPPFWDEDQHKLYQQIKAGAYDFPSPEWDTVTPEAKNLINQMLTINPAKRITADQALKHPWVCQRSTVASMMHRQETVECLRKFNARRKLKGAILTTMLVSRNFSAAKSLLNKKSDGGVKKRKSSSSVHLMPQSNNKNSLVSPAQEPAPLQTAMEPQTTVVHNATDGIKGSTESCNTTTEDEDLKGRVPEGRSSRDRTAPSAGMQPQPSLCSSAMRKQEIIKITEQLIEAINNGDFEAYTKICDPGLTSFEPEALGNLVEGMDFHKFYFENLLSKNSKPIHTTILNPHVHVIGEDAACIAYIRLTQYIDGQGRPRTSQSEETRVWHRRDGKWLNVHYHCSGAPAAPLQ
Sequence of Calcium/calmodulin-dependent protein kinase type II subunit alpha (Q9UQM7 whole entry): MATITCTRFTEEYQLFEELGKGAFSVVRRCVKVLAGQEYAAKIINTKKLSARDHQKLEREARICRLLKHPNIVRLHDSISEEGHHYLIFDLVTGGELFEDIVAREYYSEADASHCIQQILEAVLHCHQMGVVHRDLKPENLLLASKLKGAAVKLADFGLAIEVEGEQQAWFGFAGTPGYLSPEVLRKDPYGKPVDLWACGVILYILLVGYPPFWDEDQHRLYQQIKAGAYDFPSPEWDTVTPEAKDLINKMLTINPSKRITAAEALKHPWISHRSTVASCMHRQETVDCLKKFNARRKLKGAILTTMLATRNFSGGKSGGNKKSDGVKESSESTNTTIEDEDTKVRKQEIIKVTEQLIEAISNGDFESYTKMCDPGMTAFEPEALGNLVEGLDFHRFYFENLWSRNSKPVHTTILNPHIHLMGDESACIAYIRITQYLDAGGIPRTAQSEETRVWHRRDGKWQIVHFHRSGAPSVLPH
Sequence of Fibroblast growth factor receptor 3 (P22607 whole entry): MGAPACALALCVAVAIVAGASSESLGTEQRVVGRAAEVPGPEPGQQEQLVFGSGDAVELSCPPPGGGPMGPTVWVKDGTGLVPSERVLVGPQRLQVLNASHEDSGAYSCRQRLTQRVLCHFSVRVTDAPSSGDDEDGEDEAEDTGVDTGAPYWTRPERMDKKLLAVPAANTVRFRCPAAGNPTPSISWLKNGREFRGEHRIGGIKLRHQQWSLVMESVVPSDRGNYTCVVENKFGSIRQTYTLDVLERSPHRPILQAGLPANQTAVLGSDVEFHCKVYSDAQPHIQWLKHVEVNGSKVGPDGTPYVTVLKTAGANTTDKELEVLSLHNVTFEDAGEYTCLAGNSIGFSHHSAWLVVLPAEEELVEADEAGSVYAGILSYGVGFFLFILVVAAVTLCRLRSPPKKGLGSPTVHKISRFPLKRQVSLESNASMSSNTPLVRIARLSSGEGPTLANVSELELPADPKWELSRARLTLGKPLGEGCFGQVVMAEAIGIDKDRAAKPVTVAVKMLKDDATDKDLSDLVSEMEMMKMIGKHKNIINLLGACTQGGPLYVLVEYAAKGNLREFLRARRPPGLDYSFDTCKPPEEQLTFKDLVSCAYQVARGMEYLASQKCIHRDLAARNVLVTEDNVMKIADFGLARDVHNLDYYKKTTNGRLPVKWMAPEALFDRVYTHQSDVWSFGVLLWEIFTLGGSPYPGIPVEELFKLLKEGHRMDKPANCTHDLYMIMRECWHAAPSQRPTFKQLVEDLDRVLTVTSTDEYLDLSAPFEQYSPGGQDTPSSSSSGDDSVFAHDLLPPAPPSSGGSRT
Sequence of Serine/threonine-protein kinase BRSK1 (Q8TDC3 whole entry): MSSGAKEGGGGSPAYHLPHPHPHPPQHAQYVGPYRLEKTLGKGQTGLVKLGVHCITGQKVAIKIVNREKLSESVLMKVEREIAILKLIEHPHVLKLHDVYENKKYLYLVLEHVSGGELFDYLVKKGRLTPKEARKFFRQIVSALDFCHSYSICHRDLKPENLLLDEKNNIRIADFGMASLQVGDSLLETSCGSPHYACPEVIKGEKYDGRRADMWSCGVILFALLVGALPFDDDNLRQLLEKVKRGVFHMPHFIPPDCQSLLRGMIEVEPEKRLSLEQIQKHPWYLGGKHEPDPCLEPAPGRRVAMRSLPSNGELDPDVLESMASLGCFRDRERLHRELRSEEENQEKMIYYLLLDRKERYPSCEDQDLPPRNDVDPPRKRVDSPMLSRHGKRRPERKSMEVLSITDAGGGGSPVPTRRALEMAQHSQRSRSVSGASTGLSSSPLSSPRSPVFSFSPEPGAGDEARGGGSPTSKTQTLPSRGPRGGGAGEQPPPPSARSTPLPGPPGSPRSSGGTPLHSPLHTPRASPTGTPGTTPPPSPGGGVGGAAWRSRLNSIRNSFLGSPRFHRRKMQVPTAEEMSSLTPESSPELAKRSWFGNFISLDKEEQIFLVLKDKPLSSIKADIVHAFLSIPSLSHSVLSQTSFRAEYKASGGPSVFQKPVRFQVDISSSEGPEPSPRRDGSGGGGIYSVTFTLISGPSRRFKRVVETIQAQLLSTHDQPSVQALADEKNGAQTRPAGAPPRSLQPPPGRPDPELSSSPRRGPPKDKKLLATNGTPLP
Sequence of Serine/threonine-protein kinase pim-2 (Q9P1W9 whole entry): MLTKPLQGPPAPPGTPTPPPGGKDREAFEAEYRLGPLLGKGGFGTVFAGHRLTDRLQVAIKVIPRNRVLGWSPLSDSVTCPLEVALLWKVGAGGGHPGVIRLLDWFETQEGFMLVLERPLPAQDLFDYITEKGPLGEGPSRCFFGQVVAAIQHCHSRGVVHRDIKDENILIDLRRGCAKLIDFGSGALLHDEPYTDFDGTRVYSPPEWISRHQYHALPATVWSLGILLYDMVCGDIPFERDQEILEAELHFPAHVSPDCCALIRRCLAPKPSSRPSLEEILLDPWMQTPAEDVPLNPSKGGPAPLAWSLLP
Sequence of Rho-associated protein kinase 1 (Q13464 whole entry): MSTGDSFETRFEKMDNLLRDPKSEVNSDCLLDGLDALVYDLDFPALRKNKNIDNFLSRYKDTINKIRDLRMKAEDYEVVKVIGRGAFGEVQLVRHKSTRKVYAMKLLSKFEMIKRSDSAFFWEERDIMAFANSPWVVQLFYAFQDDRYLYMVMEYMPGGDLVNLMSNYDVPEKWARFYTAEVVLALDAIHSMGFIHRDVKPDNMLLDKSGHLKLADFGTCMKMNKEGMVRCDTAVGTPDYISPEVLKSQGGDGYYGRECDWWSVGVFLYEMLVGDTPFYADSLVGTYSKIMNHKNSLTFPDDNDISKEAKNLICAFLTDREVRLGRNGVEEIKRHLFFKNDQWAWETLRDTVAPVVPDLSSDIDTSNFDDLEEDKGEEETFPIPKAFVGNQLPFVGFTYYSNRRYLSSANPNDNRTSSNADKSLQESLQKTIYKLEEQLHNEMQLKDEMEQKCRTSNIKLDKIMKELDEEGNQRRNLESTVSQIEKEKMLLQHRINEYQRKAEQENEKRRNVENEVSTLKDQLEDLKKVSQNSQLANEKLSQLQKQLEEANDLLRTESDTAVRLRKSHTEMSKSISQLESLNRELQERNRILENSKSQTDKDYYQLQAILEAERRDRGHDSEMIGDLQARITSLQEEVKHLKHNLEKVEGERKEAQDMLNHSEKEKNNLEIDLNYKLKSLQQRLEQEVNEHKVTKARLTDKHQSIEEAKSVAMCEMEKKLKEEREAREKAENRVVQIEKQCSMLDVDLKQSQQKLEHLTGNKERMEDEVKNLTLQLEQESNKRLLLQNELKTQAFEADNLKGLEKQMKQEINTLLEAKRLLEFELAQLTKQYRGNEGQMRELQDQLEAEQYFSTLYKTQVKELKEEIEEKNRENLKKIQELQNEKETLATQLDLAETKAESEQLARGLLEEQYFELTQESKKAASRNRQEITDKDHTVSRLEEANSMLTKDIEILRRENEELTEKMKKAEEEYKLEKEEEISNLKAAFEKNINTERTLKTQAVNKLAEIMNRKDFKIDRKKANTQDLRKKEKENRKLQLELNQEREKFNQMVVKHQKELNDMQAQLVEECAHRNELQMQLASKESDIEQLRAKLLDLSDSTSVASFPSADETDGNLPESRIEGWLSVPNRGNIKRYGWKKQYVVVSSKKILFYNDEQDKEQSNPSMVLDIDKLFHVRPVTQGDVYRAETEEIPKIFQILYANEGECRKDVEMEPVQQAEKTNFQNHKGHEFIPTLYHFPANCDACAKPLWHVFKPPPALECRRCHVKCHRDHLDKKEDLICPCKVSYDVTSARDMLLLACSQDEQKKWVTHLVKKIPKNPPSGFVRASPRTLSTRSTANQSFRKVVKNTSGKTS
Sequence of Protein kinase C iota type (P41743 whole entry): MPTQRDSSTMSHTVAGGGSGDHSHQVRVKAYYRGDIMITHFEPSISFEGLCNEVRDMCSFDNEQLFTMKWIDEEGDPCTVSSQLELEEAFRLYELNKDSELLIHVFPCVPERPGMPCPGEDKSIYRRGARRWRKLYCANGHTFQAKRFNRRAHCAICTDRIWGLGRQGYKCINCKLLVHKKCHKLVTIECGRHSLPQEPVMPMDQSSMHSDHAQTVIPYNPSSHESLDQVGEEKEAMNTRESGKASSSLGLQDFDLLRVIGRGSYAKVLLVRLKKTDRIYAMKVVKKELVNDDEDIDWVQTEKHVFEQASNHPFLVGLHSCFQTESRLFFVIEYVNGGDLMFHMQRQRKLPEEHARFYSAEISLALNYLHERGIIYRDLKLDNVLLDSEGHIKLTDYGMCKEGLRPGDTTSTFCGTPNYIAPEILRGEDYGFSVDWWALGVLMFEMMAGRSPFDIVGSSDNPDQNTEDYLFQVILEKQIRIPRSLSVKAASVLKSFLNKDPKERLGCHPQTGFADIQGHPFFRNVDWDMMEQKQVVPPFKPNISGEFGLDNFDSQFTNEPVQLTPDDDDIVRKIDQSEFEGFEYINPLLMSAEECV

In general, IC50 refers to the point on the concentration scale where inhibition reaches its midpoint. As for `COc1ccc(-n2c(NC(=O)c3ccco3)c(C#N)c3nc4ccccc4nc32)cc1`, the IC50 in assay [1] is 12.6 µM (active); in assay [2] it was > 100 µM (not active).

Usually Ki stands for the equilibrium dissociation constant of an inhibitor or competing ligand from its target. With `Cc1n[nH]c2ccc(-c3cncc(OCC(N)Cc4ccc(Cl)c(Cl)c4)c3)cc12` (centres undefined), the Ki in assay [3] was 0.0126 µM (active); in assay [4], 0.126 µM (active); on Ephrin type-A receptor 2, > 3.16 µM (inactive); in assay [5], > 7.94 µM (inactive); in assay [6] it was > 2 µM (inactive); in assay [7], 0.0158 µM (active). In addition, the Ki in assay [8] is 3.16 µM (active); in [9] it was 1 µM (active); in [10] it was > 2 µM (inactive); in assay [11] it was 0.0126 µM (active); in [12] it was > 10 µM (inactive).

Regarding `[2H]C([2H])([2H])Oc1cccc(C(C)NC(=O)c2sc(-c3ccncc3)nc2C)c1` (centres undefined), the Ki in assay [13] is > 2.51 µM (inactive); in assay [14] it was 0.0126 µM (active); in assay [15], > 3.16 µM (inactive); in assay [16] it was > 3.16 µM (inactive); in [17] it was > 3.98 µM (inactive); on Activated CDC42 kinase 1, > 3.98 µM (inactive).

The record behind these values is ChEMBL document CHEMBL1201862, “PubChem BioAssay data set” (2004).
